Data set [1] can be described thus: Urine levels of absorbed (bioavailable) Pu-erh tea components after a single Pu-erh tea intake, UPLC-QTOFMS and GC-TOFMS profiling. It is filed as in vivo, human. Particulars: for FC (fold change): absorbed Pu-erh tea metabolite, human urine. As to the method: Participants received a dose equivalent to 5 cups of commercially prepared tea. Twenty healthy men (n=10) and women (n=10) whose mean age was 25±2 years (range 22-32) were enrolled in this study, and written consent was obtained from each participant.
Volunteers were provided with identical standard meals three times per day during the experiment (e.g., breakfast: milk and bread; lunch: beef and vegetables; dinner: pork and cabbage). […] Urine samples were stored at −80° C. before analysis.
The tea infusion used in this study and the collected urine samples were centrifuged at 13,000 rpm for 10 min at 4° C., and the resulting supernatants were immediately stored at −80° C. pending UPLC-QTOFMS analysis. Ultrapure water (500 μL) was added to the tea or urine sample (500 μL) and vortexed for 1 min. The sample was then filtered through a syringe filter (0.22 μm) for UPLC-QTOFMS analysis.; incorporated by reference herein in its entirety.
The tea infusion (100 μL) described in Example 2 and urine samples (100 μL) were spiked with two internal standard solutions (10 μL-2-chlorophenylalanine in water, 0.3 mg/ml; 10 μL heptadecanoic acid in methanol, 1 mg/mL), and vortexed for 10 seconds. The mixed solution was extracted with 300 μL of methanol:chloroform (v/v 3:1) and vortexed for 30 seconds. After storing for 10 min at −20° C., the samples were centrifuged at 10,000 rpm for 10 min. An aliquot of the 300 μL supernatant was transferred to a glass sampling vial to vacuum dry at room temperature. The residue was derivatized using a two-step procedure. First, 80 μL methoxyamine (15 mg/mL in pyridine,) was added to the vial and kept at 30° C. for 90 min followed by 80 μL BSTFA (1% TMCS) at 70° C. for 60 min. See protocols set forth in Ni et al., FEBS Lett. 581: 707-711 (2007).; incorporated by reference herein in its entirety.
UPLC: Tea and urine metabolite profiling were performed using a Waters ACQUITY UPLC system equipped with a binary solvent delivery manager and a sample manager (Waters Corporation, Milford, Mass., USA), coupled to a Micromass Q-TOF Premier mass spectrometry equipped with an electrospray interface (Waters Corporation, Milford, M A, USA). Chromatographic separations were performed on a 2.1×100 mm 1.7 μm ACQUITY BEH C18 chromatography column. The column was maintained at 45° C. and eluted with a 1-99% acetonitrile (0.1% (v/v) formic acid)-aqueous formic acid (0.1% (v/v) formic acid) gradient over 10 min at a flow rate of 0.40 mL/min. A 5 μL aliquot sample was injected onto the column.
Mass Spectrometry: The mass accuracy analysis and detailed MS parameters were optimized according to our prior studies, which is incorporated herein in its entirety. During metabolite profiling experiments, centroid data was acquired for each sample from 50 to 1000 Da with a 0.10 sec scan time and a 0.01 sec interscan delay over a 10 min analysis time. A metabonomics MS System Test Mixture including acetaminophen, tolbutamide, 3′-azido-3′-deoxythymidine, reserpine, verapamil and coumarin was used as chromatographic reference and mass accuracy quality control. This test mixture was injected every ten injections. The mass spectrometer was operated in positive ion mode. The desolvation temperature was set to 400° C. at a flow rate of 700 L/hr and source temperature of 100° C. The capillary and cone voltages were set to 3500 and 45 V, respectively. The data was collected between 50-1000 m/z with alternating collision energy, at 5 eV for precursor ion information generation and a collision profile from 10-40 eV for fragment ion information. The Q-TOF Premier™ was operated in v mode with 10,000 mass resolving power. Data were centroided during acquisition using independent reference lock-mass ions via the LockSpray™ interface to ensure mass accuracy and reproducibility. Leucine-enkephalin was used as the reference compound at a concentration of 50 pg/μL and an infusion flow rate of 0.05 mL/min.

The nature of data set [2]: Pearson correlation of absorbed, biotransformed plant metabolites and altered endogenous metabolites in urine. Particulars: ρ≧0.7 or ρ≦−0.7, urine, FIG. 13. It is filed as in vivo, human.
Experimental: Similarly, in order to study the relationship of dynamic response of metabolites along with the time course, mean value of each metabolite was calculated at each time point (0 h→1 h→2 h→3 h→6 h→12 h→24 h). A new metabolite vector with 7 mean values calculated at 7 different time points, representing the average response, was constructed and the Pearson correlation coefficients were calculated similarly with the pair-wise comparison of metabolites.

The structures appear in SMILES notation.

Consider `Cn1c(=O)c2c(ncn2C)n(C)c1=O` [Caffeine], for which the “FC (fold change)” value in data set [1] (1 h post-dose vs pre-dose) came to 454.37; in data set [1] (3 h post-dose vs pre-dose), 573.74; in data set [1] (6 h post-dose vs pre-dose), 437.21; in data set [1] (9 h post-dose vs pre-dose), 277.02; in data set [1] (12 h post-dose vs pre-dose), 160.06; in data set [1] (24 h post-dose vs pre-dose) it was 46.28. Further, in data set [1] (absorbed plant metabolites, after oral administration of Pu-erh tea, FIG. 10A), the “time at which concentration reached maximum levels in urine” value came out at 1 h. Also, the “time at which cleared away from urine” value in data set [1] (absorbed plant metabolites, post-dose, FIG. 10A) is listed as 9 h. Further, in data set [2], the “correlation with its biodegradated metabolites paraxanthine, theophylline, hippuric acid and 3-hydroxyphenylacetic acid” value is reported as “positively corrected”.

For the origin of these results see US20140024132A1, “METHODS AND SYSTEMS USING INTEGRATED METABOLOMICS AND PHARMACOKINETICS FOR MULTI-COMPONENT DRUG EVALUATION” (priority 2010, published 2014).
